Test results as given in patent publication US9133230B2, “Hydrazone derivatives having potent antitumor activity toward multi-drug resistant tumor cells” (THE UNITED STATES OF AMERICA AS REPRESENTED BY THE …, priority 2011, dated 2015).

What was measured:
Format in all cases: cell-based
[1] = system: human colon adenocarcinoma Caco-2; assay: MTS cytotoxicity assay, Caco-2
Procedure: (§1) In order to obtain information about the growth-inhibiting action of hydrazones reported in the present invention on tumor cells, growth inhibition was assessed for the following human tumor cell lines: human myelogenous leukemia K562, human cervical adenocarcinoma HeLa, human colon adenocarcinoma Caco-2, human colon carcinoma HT-29, human colon carcinoma HCT-15, and human breast carcinoma MCF-7.
(§2) The K562, HeLa, HT-29, HCT-15, Caco-2, and MCF-7 cell lines were obtained from the American type Culture Collection (ATCC, Manassas, Va.). K562 cells were maintained in RPMI 1640 medium (Gibco/Life Technologies, Gaithersburg, Md.) containing 10% heat-inactivated fetal bovine serum (FBS) (Atlanta Biologicals, Atlanta, Ga.) and 10000 U/L penicillin and 50 mg/L streptomycin. HeLa, HT-29, HCT-15, Caco-2 and MCF-7 cells were maintained in MEM with Earl's balanced salts, 10% FBS, penicillin, and streptomycin as above. Logarithmically growing HT-29, Caco-2, and MCF-7 cells were incubated with 0.05% trypsin containing 1 mM EDTA at 37° C. for about 5 min until cells were nonadherent and formed a single cell suspension. Trypsin activity was neutralized by adding 20-fold excess of the serum-containing medium. Cells were cultured at 37° C. in an atmosphere of air and 5% CO2.
(§3) Cytotoxicity assays were conducted by tetrazolium reduction of 3-(4,5-dimethylthiazol-2-yl)-5-(3-carboxymethoxyphenyl)-2-(4-sulfophenyl)-2H-tetrazolium (MTS) with N-methylphenazonium methyl sulfate (PMS) (CellTiter Assay, Promega, Madison, Wis.). Logarithmically growing cells were plated in 0.1 mL aliquots in 96-well microtiter plates. Cells were plated at an initial density of about 5000 cells/mL and allowed to acclimatize for 24 h. Cell suspensions were treated with various dilutions of compounds in triplicate, mixed well, and allowed to incubate for 48 h at 37° C. in an atmosphere of air and 5% CO2. To the cell suspension was added 20 μL of tetrazolium reagent, the mixture was incubated for 2 h at 37° C. in an atmosphere of air and 5% CO2, and absorbance at 490 nm was read by microplate reader. Control plates with serial dilutions of cell types were counted as a control for the assay. In all cases, controls indicated a linear response versus cell number, R^2≧0.99.

[2] = system: human myelogenous leukemia K562; assay: MTS cytotoxicity assay, K562
Procedure: as §1, §2, §3

[3] = system: human cervical adenocarcinoma HeLa; assay: MTS cytotoxicity assay, HeLa; settings: 48 h incubation
Procedure: as §1, §2, §3

[4] = system: human colon carcinoma HT-29; assay: MTS cytotoxicity assay, HT-29
Procedure: as §1, §2, §3

[5] = system: human breast carcinoma MCF-7; assay: MTS cytotoxicity assay, MCF-7
Procedure: as §1, §2, §3

[6] = system: human colon carcinoma HCT-15; assay: MTS cytotoxicity assay, HCT-15
Procedure: as §1, §2, §3

[7] = Homo sapiens, Caco-2, 48 h incubation
[8] = Homo sapiens, K562, 48 h incubation
[9] = Homo sapiens, HT-29, 48 h incubation
[10] = Homo sapiens, MCF7, 48 h incubation

| Molecule | GI50 [1, 7] [µM] | GI50 [2, 8] [µM] | GI50 ([3]; Homo sapiens, HeLa) [µM] | GI50 [4, 9] [µM] | GI50 [5, 10] [µM] | GI50 ([6]; Homo sapiens, HCT-15, 48 h incubation) [µM] | GI50 ([1]; 48 h incubation) [µM] | GI50 ([2]; 48 h incubation) [µM] | GI50 [3] [µM] | GI50 ([4]; 48 h incubation) [µM] | GI50 ([5]; 48 h incubation) [µM] | GI50 ([6]; 48 h incubation) [µM] |
| --- | --- | --- | --- | --- | --- | --- | --- | --- | --- | --- | --- | --- |
| C[C@]1(O)C(O)[C@H](n2cnc3c(NN=C(c4ccccc4)c4ccccn4)ncnc32)O[C@@H]1CO (stereo partly drawn) [I-1, (2R,3S,5R)-2-(hydroxymethyl)-3-methyl-5-(6-(2-(phenyl(pyridin-2-yl)methylene)hydrazinyl)-9H-purin-9-yl)tetrahydrofuran-3,4-diol] | 43.2 | 48.1 | 68.9 | 57.2 | > 100 | – | – | – | – | – | – | – |
| CC(=NNc1ncnc2c1ncn2C1O[C@H](CO)[C@@](C)(O)[C@H]1O)c1cccnc1 (stereo partly drawn) [I-3, (2R,3S,4R)-2-(hydroxymethyl)-3-methyl-5-(6-(2-(1-(pyridin-3-yl)ethylidene)hydrazinyl)-9H-purin-9-yl)tetrahydrofuran-3,4-diol] | 2.2 | 12 | 17 | 15 | 17 | 11.2 | – | – | – | – | – | – |
| CC(=NNc1ncnc2c1ncn2[C@@H]1O[C@H](CO)C(O)C1O)c1ccncc1 (stereo partly drawn) [I-8, (2R,5R)-2-(hydroxymethyl)-5-(6-(2-(1-(pyridin-4-yl)ethylidene)hydrazinyl)-9H-purin-9-yl)tetrahydrofuran-3,4-diol] | 49.6 | 56 | 60 | 213 | 68 | – | – | – | – | – | – | – |
| OC[C@H]1OC(n2cnc3c(NN=Cc4cccnc4)ncnc32)[C@H](O)[C@@H]1O (some centres unmarked) [I-10] | – | – | – | – | – | – | 0.9 | 22 | 18 | 18 | 14 | 22 |
| OC[C@H]1OC(n2cnc3c(NN=Cc4ccccc4)ncnc32)[C@H](O)[C@@H]1O (some centres unmarked) [I-16] | – | – | – | – | – | – | 7.6 | 15 | 3 | 13 | 10 | 5.5 |
| 6-(2-(Dipyridin-2-yl)methylene)hydrazinyl)-9-methyl-9H-purine [I-23] | – | – | – | – | – | – | – | 0.9 | – | – | – | – |
| OC[C@H]1O[C@@H](n2cnc3c(NN=C(c4ccccc4)c4ccccn4)ncnc32)C(O)C1O (stereo partly drawn) [I-5, (2R,5R)-2-(hydroxymethyl)-5-(6-(2-(phenyl(pyridin-2-yl)methylene)hydrazinyl)-9H-purin-9-yl)tetrahydrofuran-3,4-diol] | 64.5 | 49 | 36 | 52.5 | 44.9 | – | – | – | – | – | – | – |
| OC[C@H]1OC(n2cnc3c(NN=Cc4ccncc4)ncnc32)[C@H](O)[C@@H]1O (some centres unmarked) [I-11] | – | – | – | – | – | – | 11 | 58 | 56 | 79 | 70 | 71 |
| CC(=NNc1ncnc2c1ncn2[C@@H]1O[C@H](CO)C(O)C1O)c1ccccn1 (stereo partly drawn) [I-6, (2R,5R)-2-(hydroxymethyl)-5-(6-(2-(1-(pyridin-2-yl)ethylidene)hydrazinyl)-9H-purin-9-yl)tetrahydrofuran-3,4-diol] | 14 | 11 | 12 | 38 | 15 | – | – | – | – | – | – | – |
| CC(=NNc1ncnc2c1ncn2[C@@H]1O[C@H](CO)C(O)C1O)c1cccnc1 (stereo partly drawn) [I-7, (2R,5R)-2-(hydroxymethyl)-5-(6-(2-(1-(pyridin-3-yl)ethylidene)hydrazinyl)-9H-purin-9-yl)tetrahydrofuran-3,4-diol] | 63.3 | 45 | 25 | 144 | 93 | – | – | – | – | – | – | – |
| c1ccc(C(=NNc2ncnc3[nH]cnc23)c2ccccn2)nc1 [I-20, 6-(2-(Dipyridin-2-ylmethylene)hydrazinyl)-9H-purine] | – | 0.1 | – | – | – | – | – | – | – | – | – | – |
| CC(=NNc1ncnc2c1ncn2C1O[C@H](CO)[C@@](C)(O)[C@H]1O)c1ccccn1 (stereo partly drawn) [I-2, (2R,3S,4R)-2-(hydroxymethyl)-3-methyl-5-(6-(2-(1-(pyridin-2-yl)ethylidene)hydrazinyl)-9H-purin-9-yl)tetrahydrofuran-3,4-diol] | 23 | 11 | 21 | 17.6 | 13.5 | – | – | – | – | – | – | – |
